The values below come from patent publication US20220118170A1, “SYSTEMS, APPARATUS, AND METHODS FOR ADMINISTERING A SUBSTANCE” (Massachusetts Institute of Technology, priority 2015, published 2022).

Data set [1] is described as follows: Effect of sonication on molecular structure (1H NMR). The class given is physicochemical. To be noted: 20 kHz ultrasound at highest intensity, 4 mg/mL in deuterated DMSO. The procedure:
Three biological replicates were performed. Unsonicated samples were used as the control. A Varian 500 (1H, 500 MHz) spectrometer was used to record 1H NMR spectra, then processed using Mnova NMR software (available from Mestralab Research, A Coruña, Spain). The 1H NMR spectra were referenced with residual non-deuterated solvent shifts (DMSO-d5=2.5 ppm). All shifts are reported in ppm. Note the disappearance of the volatile internal tetramethylsilane (TMS) standard after ultrasound treatment, which was carried out in an uncapped vial.
Deuterium exchange occurs as labile protons on the analyte exchange with the deuterated solvent in which it is dissolved. Replacement of protons by deuterium results in loss of signal, shown either as a reduction in the integration fractions or disappearance of the peak altogether. Other indications of deuterium exchange include a slight broadening of peak shape, a shift in peak location, and slight change in J coupling values.

On the set-up of data set [2]: species or system Yorkshire pigs. To be noted: both, Yorkshire, pig, in vivo. The procedure: Before every experiment, the animal was fasted overnight.
In step 1402, the subject's rectum is cleared, for example, with a tap water enema. In the study, a clean rectum was confirmed by colonoscopy prior to treatment.
In step 1404, a medicated enema is instilled.
In step 1406, ultrasound is applied. In the study, Control and Treatment tests were performed on separate days. For Treatment tests, the ultrasound treatment was applied using a 20 kHz horn for 2 minutes at a 50% duty cycle at an intensity of 7.5 W/cm^2. For Control tests, the ultrasound probe was inserted into the colon, but not turned on (n=16).
In step 1408, the tissue is biopsied for further assessment. Colonic areas treated with ultrasound were biopsied using endoscopic biopsy forceps (available from, e.g., US Endoscopy, Mentor, Ohio) for drug delivery evaluation as well as histological analysis (n=13).
Each point represents one biological replicate (n=16 for Control, n=13 for Treatment).
Tissue was ground and mixed with phosphate buffered saline and precipitated with 10% trichloroacetic acid. The resulting supernatant was extracted with ethyl acetate. This extract was dried with anhydrous sodium sulfate, transferred to a glass tube, and evaporated to dryness under nitrogen. […] Finally, the sample was allowed to cool to room temperature and analyzed by GC/MS. […]

Data set [3] concerns dextran sodium sulfate (DSS)-induced acute colitis. The data set can be described thus: Dextran sodium sulfate-induced murine colitis model, mesalamine enema with radial UMGID. The class given is in vivo, C57BL/6 mice. The source says:
Therefore, improvement in disease indices in this model as a result of ultrasound treatment would underscore the impact of UMGID. Given the colonic anatomy and the often circumferential nature of colitis involvement, it was hypothesized that radial UMGID would be most beneficial so as to direct the treatment over the largest area of inflamed tissue. […] The two bumps shown have a diameter of 3 mm and enhance radial ultrasound emission. […] Fifteen-week old, female C57BL/6 mice were purchased from Charles River Laboratories (Wilmington, Mass.) for the induction and treatment of dextran sodium sulfate (DSS)-induced colitis. Five animals were utilized per group. […] Each cage (group) was used as it was received and randomly assigned to experimental groups by the researchers performing the work. On day 1, blood was drawn from all mice and an initial weight of each animal was taken. Colitis was induced with 40-50 kDa dextran sulfate sodium salt (DSS) (available from, e.g., Affymetrix Inc., Santa Clara, Calif.). Starting on day 1, a 3% w/w DSS solution was administered in drinking water ad libitum. On days 3 and 5, the drinking solution was replaced with fresh DSS solution. […] The animals were monitored daily for weight, fecal consistency, and for the presence of fecal occult blood using Hemoccult cards (Beckman Coulter, Pasadena, Calif.). Fecal consistency and the presence of blood was scored based on previously published protocols. Specifically, stool consistency was scored as follows: (1) normal pellet-like feces, (2) pellet of stool easily crushed, (3) soft, watery stool with granules present, or (4) diarrhea. […] Animals with negative hemoccult results were scored (1). […] On day 14, a final weight was taken and fecal score assessed. […] Scores were determined according to previously published protocols with slight modification as follows in TABLE 3: Each tissue cross-section present on the microscope slide (n=2-6) was scored individually between 0-4 with a corresponding percentage involvement (rounded to the nearest quartile). […]

Data set [4] relates to blood-glucose. To be noted: swine, enema containing 100U insulin with 1-minute 20 kHz ultrasound.
Description: Both female and male Yorkshire pigs between 45-80 kg in weight were used for one study based on the availability of sex from the vendor. […] Before every experiment, the animal was fasted overnight. Sedation was induced with intramuscular injection of Telazol® tiletamine, 5 mg/kg (available from Zoetis, Inc., Florham, N.J.), xylazine 2 mg/kg, and atropine 0.04 mg/kg. The animal was then intubated and sedation maintained with isoflurane (1-3% inhaled).
In addition to the preparation noted above, a central venous catheter was placed in the femoral vein using the Seldinger technique to allow for frequent blood sampling. […] A real-time readout was achieved using a TRUEtrack® blood glucose meter (available from Nipro Diagnostics Inc., Fort Lauderdale, Fla.). The remaining blood sample was saved in a blood collection tube with sodium fluoride and ethylenediaminetetraacetic acid (EDTA) to minimize further glucose metabolism. All data shown represents the blood-glucose values quantified from the blood collection tubes, which was evaluated in a blinded fashion.
The blood-glucose was monitored for at least 40 minutes, depending on the experiment's effect on blood-glucose. When necessary, hypoglycemia was corrected with intravenous boluses of 50% dextrose (only needed when ultrasound treatment took place). […]
Data set [5] relates to porcine small intestine. The data set can be described thus: Permeability in Side-Bi-Side diffusion cells. The class given is in vitro ADME. The procedure:
Side-Bi-Side™ diffusion cells (available from PermeGear, Hellertown, Pa.) with inner diameters of 9 mm were used to determine permeability. Tissue was placed between the two chambers and clamped together with the luminal side facing the donor chamber. Stir bars were added to both the donor and receiver chambers and agitated using the Bell-ennium™ 9-position magnetic stirrer.
The donor solution consisted of 2 μCi/mL 3H-glucose and 2 μCi/mL 14C-labeled inulin. Each donor chamber was filled with 3 mL of this solution and the receiver solution was filled with 3 mL fresh PBS. At 10-minute intervals over the course of one hour,100 μL samples were taken from the receiver chamber and replaced with an equal volume of fresh PBS. Then, 15 mL of Hionic Fluor was added to these samples and analyzed for tritiated decomposition and 14C decomposition. Seven repeats were performed for the Control samples, and 17 for the Treated samples. […]
The only unknown in Equation 3 is the pore size in λ. Therefore, P may be determined experimentally for each permeant to estimate the membrane pore size. […]
where A is the area of the membrane exposed to the permeant, Ci is the concentration of the permeant in the donor chamber, and dQi/dt is the slope of the plot of the permeant quantity in the receiver chamber versus time after the lag-phase. […]

Data set [6] deals with colon tissue. The data set can be described thus: Ex vivo delivery of radiolabeled permeants in Franz diffusion cells, colon. To be noted: colonic tissue, ultrasound treatment, on average.
Description: Solutions of the four compounds at a concentration of 1 mg/mL were prepared with a radiolabel content ranging from about 0.001% to about 2.5% depending on the stock solution's radiolabel content.
GI tissue (e.g., tongue, esophagus, stomach, intestine, and colon tissue) from Yorkshire pigs was procured within 20 minutes of animal euthanization and stored at about 4° C. Drug delivery testing took place within 6 hours of euthanization. Upon delivery, the fresh porcine tissue was washed with PBS and excess fat was carefully dissected away. With the exception of tongue tissue, the full thickness of the tissue was used for testing. The tissue was sectioned into approximately 2 cm-by-2 cm pieces and kept hydrated with PBS. The variability in thickness of tongue tissue prevented mounting of the entire thickness in the diffusion chambers. […]
Low-frequency (e.g., less than 100 kHz) ultrasound was utilized and administered directly to tissue and compared to controls consisting of untreated tissue. Delivery efficacy was assessed by quantifying the delivery of radiolabeled permeants into and through tissue utilizing Franz diffusion cells. […] Unless otherwise noted, delivered quantities represent the total amount of permeant delivered over this area. […]

Where only a bound is given, the exact number is not on record here.

Take `Nc1ccc(O)c(C(=O)O)c1` [mesalamine, 5-aminosalicylic acid]: in data set [1], the “Molecular structure / chemical stability after sonication (1H NMR)” value is on record as “chemical stability”. For the same compound, the “Drug content in tissue biopsies (limit of detection)” value in data set [2] is reported as below 50 ng/g tissue. In addition, the “Increase in delivery to tissue biopsies using ultrasound compared to tissue not treated” value in data set [2] was 22.4 fold. For the same compound, the figures for the “Total fecal score on day 14” value in data set [3] (mesalamine enema alone QD), in data set [3] (mesalamine enema with ultrasound treatment QD) and in data set [3] (mesalamine enema with ultrasound treatment QOD) were “significantly elevated”, “below 4” and “below 4”, respectively.
Turning to insulin aspart, the Blood-glucose response result in data set [4] is recorded as “robust hypoglycemic response”.
For the compound inulin, the Permeability in data set [5] (tissue not treated with ultrasound) was 0.227 ± 0.113 ×10⁻⁶ cm/s. Also, in data set [5] (ultrasound treated samples, 20 kHz for 2 minutes at 50% duty cycle), the Average permeability was found to be 0.49 ± 0.227 ×10⁻⁶ cm/s. The “Amount in the tissue compared to that in the receiver chamber” value in data set [6] worked out at 90 fold.
